From patent US20150305333A1, “USE OF GLUCOSAMINE AMIDES AS PLANT GROWTH AND YIELD ENHANCERS” (PIONEER HI-BRED INTERNATIONAL, INC., priority 2012, published 2015)

Columns and labels:
Assay type in all cases: in vivo
[1] = tested on: canola seeds; experiment: Petri dish seed germination assay, canola; conditions: Salt Stress (100 mM NaCl)
Description: A series of Petri dish seed assays was conducted to evaluate the effects NPG on the seed germination rates of corn, soybean, and canola seeds subjected to cold stress, salt stress and non-stressed conditions (salt stress only for canola). Assays were performed with ten replications of ten seeds/plate (100 total seeds). NPG was applied to seeds at the specified concentrations prior to being placed in Petri plates. Seeds designated for Salt Stress Experiments 1 & 2 were placed in Petri dishes containing a 100 mM NaCl solution and incubated at 21° C.-22° C. in the dark. Cold stress Petri dishes were incubated at 15° C. in the dark. Untreated Controls were incubated at 21° C.-22° C. in the dark as were seeds utilized in the separately conducted non-stressed germination assays. Data was recorded as percent germination at designated times after plating. Statistical analyses were performed using one-way Anova and Kruskal-Wallis one-way analysis of variance on rank combined with Dunn's all pairwise multiple comparison procedure (α=0.05).

[2] = tested on: AC Metcalf spring barley (Hordeum vulgare); experiment: Spring barley field trial 2011: emergence, vigor, tillering; conditions: for Barley Crop Vigor (1-5 scale): vigor scale of Example 3; for Barley Plant Tillers: 24 DAP
Description: A spring barley field trial was conducted to evaluate the effects of NPG on plant emergence and vigor in AC Metcalf spring barley (Hordeum vulgare) planted near Wetaskiwin, Alberta, Canada, in 2011. Seed treatments included an Untreated Control, 10^−7 M NPG seed coating, 10^−7 M NPG seed coating followed by an NPG foliar treatment (10^−7 M NPG+Foliar), 10^−6 M natural LCO, and 10^−6 M commercial LCO plus a commercial rhizobia inoculant (LCO+RI) applied as a seed coating. The natural LCO was provided by Dr. Don Smith (McGill University, Montreal, Canada) and prepared as described in Example 2.
Seed coating was performed by injecting 7 mL of aqueous NPG solution per 100 g barley seed into the coating machine followed by treatment and drying. […] Foliar NPG was applied 47 days after planting. Plants were sprayed using a four-nozzle hollow-cone boom and CO2 propellant at a speed of 10.8 km/h and 40 psi, with a mix size of 1.0 L and spray rate of 110 L/ha water volume. Seeds designated for use as the Untreated Control also received the fungicide maintenance treatment.
Treated seeds were sent to the DuPont Wetaskiwin, Alberta, Canada, Research Station and planted on May 19th in a loam composed of 29% sand, 46% silt and 25% clay and 4.8% organic matter. […] Barley was planted at a rate of 100 kg seeds/ha to a depth of 2.5 cm. Weeds were controlled using 60 grams ai/ha pinoxaden, 30 grams/ha thifensulfuron methyl, and 280 grams ai/ha 4-chloro-2-methylphenox acetic acid, 2-ethylhexyl ester. Adigor surfactant was used at a rate of 700 ml/hectare. All of the products used are considered industry standards and representative of what is used in commercial production.
The trial was conducted using a randomized complete block design with a plot size of 2 m by 6 m with 22.9 cm row spacing, 3.3 cm plant spacing and four replications. Height and yield data was not collected in this trial due to a large hailstorm on Jul. 18, 2011.
Crop vigor was observed 11 and 14 days DAP using the vigor scale described in Example 3 (Table 12).

[3] = tested on: canola (Brassica napus) Pioneer hybrid 45H29; experiment: Canola field trials 2011: early growth, days to maturity, height, yield; conditions: at plant maturity, averaged across three locations; NPG 10^−7 M, LCO/rhizobia at manufacturers' recommended rates
Description: Three canola (Brassica napus) field trials were conducted in the spring of 2011 to evaluate the effects of NPG on early growth, days to maturity, height and yield for Pioneer hybrid 45H29 planted at research sites near Carman, Neepawa, and Treherne (Manitoba, Canada) in 2011. Seed treatments included an Untreated Control, 10^−7 M NPG, and a mixture of a commercial LCO and rhizobia. An aqueous solution of NPG was applied at 0.25 L/100 kg seed by soaking the seeds in aqueous solutions of the respective treatments for 15 minutes followed by air drying on a tray. Untreated Control seeds were treated identically with the exception of being soaked in water without added NPG, LCO or rhizobia. The LCO/rhizobia mixture was applied to seeds at the manufacturers' recommended rates. […]
Early growth was scored on a 1-9 scale using a subjective evaluation of the ‘healthiness’ of plants and the soil surface area covered by their leaves when the plants are in the 4-6 leaf stage. […]
Days to maturity was measured from time of planting to physiological maturity, which was recorded in days from planting until the seeds in the pod, one third of the way up the main raceme, changed color to black in 50% of the plants in a given row or plot. […]
Plant height was measured at plant maturity. […]
Yield was measured in bushels per acre of mature seed. […]

[4] = 10^−7M seed coating + Foliar, 11 DAP
[5] = 10^−7M seed coating + Foliar, 14 DAP

SMILES: CCCCCCC=CCCCCCCCC(=O)NC1C(OC)OC(CO)C(O)C1O [NPG, Methyl 2-deoxy-2-N-(hexadece-9,10-cis-eneoyl)-β-D-glucopyranoside]
- Canola Seed Germination ([1]; 10^−6M, 30 HAP): 14b %
- Canola Seed Germination ([1]; 10^−6M, 39 HAP): 67.3ab %
- Canola Seed Germination ([1]; 10^−6M, 48 HAP): 84a %
- Canola Seed Germination ([1]; 10^−7M, 30 HAP): 22.7ab %
- Canola Seed Germination ([1]; 10^−7M, 39 HAP): 80.7a %
- Canola Seed Germination ([1]; 10^−7M, 48 HAP): 88.7a %
- Barley Crop Emergence [2, 4]: 25a plants/m row
- Barley Crop Vigor (1-5 scale) [2, 4]: 3a
- Barley Crop Emergence [2, 5]: 31.8a plants/m row
- Barley Crop Vigor (1-5 scale) [2, 5]: 4a
- Barley Plant Tillers ([2]; 10^−7M seed coating + Foliar): 95a %
- Barley Crop Emergence ([2]; 10^−7M seed coating, 11 DAP): 22.5a plants/m row
- Barley Crop Vigor (1-5 scale) ([2]; 10^−7M seed coating, 11 DAP): 3a
- Barley Crop Emergence ([2]; 10^−7M seed coating, 14 DAP): 27.4a plants/m row
- Barley Crop Vigor (1-5 scale) ([2]; 10^−7M seed coating, 14 DAP): 4a
- Barley Plant Tillers ([2]; 10^−7M seed coating): 83a %
- Plant height [3]: 114.2 cm
